Values of other authors, collected in patent publication US20160243064A1, “NOVEL ORAL PHARMACEUTICAL COMPOSITIONS OF TREPROSTINIL” (Gavis Pharmaceuticals, priority 2015, published 2016).

Conditions: free acid, as taught by the cited US patents

## CCCCC[C@H](O)CC[C@@H]1[C@H]2Cc3cccc(OCC(=O)O)c3C[C@H]2C[C@H]1O [treprostinil]
  oral absolute bioavailability: less than 10%
